According to patent US5593969A, “Lipid-A analogs: monosaccharide and dissaccharide compounds for inhibiting binding of lipid A receptors to lipid A receptors” (IGEN Incorporated, priority 1993, dated 1997):

Columns and labels:
[1] = Serum antibody titre on Lipid-A by ELISA after liposome immunization; assay type: in vivo, Balb/c mice; details: Lipid-A liposomes with HEL[105-120], HEL primed
Description: i) A stock solution of lipids for the formation of liposomes was prepared by mixing 10 mM solutions of dimyristoyl phosphatidyl choline, dicetyl phosphate and cholesterol (all from Sigma Chemicals) in the ratio 1.0:0.11:0.75. This stock was aliquotted into 1.0 ml volumes and dried under argon and stored at -20° C. until used.
ii) 500 μg of immunogen 3D dissolved in CHCl3 was dried into a 50 ml round bottomed flask on a rotary evaporator. One aliquot of the lipid stock was dissolved in 1 ml of CHCl3 :MeOH (9:1) and added to the dried immunogen 3D. The dissolved lipids were thoroughly mixed then dried together on a rotary evaporator under argon until all solvent had been removed and then for an additional 15 mins. The flask was then placed in a high vacuum dessicator for 2 hrs. 1.0 ml of swelling solution, approximately 0.9% NaCl, was added to the dry lipid film with 0.5 g of glass beads and mixed vigorously by swirling and vortexing. Liposomes were allowed to swell at room temperature overnight. […]
Mice which were primed with HEL and immunized with Immunogen 3D("Imm-3D") and Lipid-A incorporated separately into liposomes along with the peptide HEL[105-120] […] Seven days after the final immunization, serum samples were taken and the titres of IgG and IgM anti-Lipid-A antibodies determined separately by ELISA. […]

tumor cells = experiment: Antitumor activity (Meth A fibrosarcoma, melanoma or Pro b cells); assay type: in vivo; details: 250, 100 or 10 μg/mouse or up to 10 μg/kg, intravenously or intratumorly
Pseudomonas aeruginosa = assay type: in vivo, Pseudomonas aeruginosa in ICR mice; details: Lipid-A at 1 μg/mouse

Substance: Lipid-A
- IgG antibody responses to the eliciting antigen [1]: enhanced IgG antibody responses
- tumor growth (tumor cells): retarded or prevented
- protective activity against gram-negative bacteria (Pseudomonas aeruginosa): exhibits protective activity
